We go through twelve compounds from ChEMBL document CHEMBL5137002, “A Comprehensive Biological and Synthetic Perspective on 2-Deoxy-d-Glucose (2-DG), A Sweet Molecule with Therapeutic and Diagnostic Potentials” (J Med Chem, 2022).

One series relates to Saccharomyces cerevisiae. Briefly: Inhibition of yeast hexokinase assessed as Km.
The test system of series [1] is U-87 MG. Briefly: Growth inhibition of human U87 cells under hypoxic condition. The series is classed as functional, cell-based, U-87MG ATCC.
Series [2] deals with U-87 MG. Briefly: Growth inhibition of human U87 cells under normoxic condition. The series is classed as functional, cell-based, U-87MG ATCC.
The subject of series [3] is SARS-CoV-2. Kind of series: Antiviral activity against SARS-CoV-2 B.6 in African green monkey Vero E6 cells assessed as inhibition of virus multiplication. The series is classed as functional, organism-based. To be noted: Severe acute respiratory syndrome coronavirus 2, B.6, Vero C1008.
For series [4], the system named is SARS-CoV-2. Briefly: Antiviral activity against SARS-CoV-2 B.1.1.7 in African green monkey Vero E6 cells assessed as inhibition of virus multiplication. The series is classed as functional, organism-based. To be noted: Severe acute respiratory syndrome coronavirus 2, B.1.1.7, Vero C1008.
Series [5] relates to SARS-CoV-2. Briefly: Antiviral activity against SARS-CoV-2 in African green monkey Vero E6 cells assessed as inhibition of virus multiplication at 1 mM. The format is functional. The note with it: Severe acute respiratory syndrome coronavirus 2, Vero C1008.
The test system of series [6] is SARS-CoV-2. Kind of series: Antiviral activity against SARS-CoV-2 in African green monkey Vero cells assessed as inhibition of virus multiplication in presence of extracellular glucose. The series is classed as functional, Severe acute respiratory syndrome coronavirus 2.
Series [7] in a line: Drug uptake in tumor of rat measured per gram of tissue at 1 hr. The series is classed as ADME, tissue-based, Neoplasm. The note with it: in vivo.
A short description of series [8]: Ratio of tumor to blood biodistribution in rat after 60 mins. To be noted: tumor and blood. The format is ADME, organism-based.
Series [9] can be described thus: Competitive inhibition of yeast hexokinase. More on the design: species or system Saccharomyces cerevisiae.
The nature of series [10]: Competitive inhibition of rat brain hexokinase.

pIC50, pKi: −log10 of the molar value.

As a reminder, the Km is the concentration of substrate that gives half-maximal velocity. `OC[C@H]1OC(O)[C@H](F)[C@@H](O)[C@@H]1O` (stereo not given in full): the Km in the series with Saccharomyces cerevisiae worked out at 190 µM. In general, pIC50 refers to −log10 of the IC50, conventionally taken in molar units. Regarding `CC(=O)OC[C@H]1OC(O)C[C@@H](OC(C)=O)[C@@H]1O` (stereo not given in full), the pIC50 with U-87 MG [1] and in the series with U-87 MG [2] was 3.00 in each case. In general, inhibition refers to how much of the control response was suppressed. For the compound `OC[C@H]1OC(O)C[C@@H](O)[C@@H]1O` (stereo not given in full), the pIC50 in the series with SARS-CoV-2 [3] and in the series with SARS-CoV-2 [4] was more than 3.00 each time. Further, the inhibition at 1000 µM with SARS-CoV-2 [5] stood at 93%. Besides, the “inhibition (INH)” value with SARS-CoV-2 [6] stood at 7%. As a reminder, the Kp is the ratio of the level in a tissue or fluid to that in plasma or blood. In [7], `OC[C@H]1OC(O)[C@H]([18F])[C@@H](O)[C@@H]1O` (stereo not given in full) [FLUDEOXYGLUCOSE F 18] came in with a Drug uptake of 2.65%. For the same compound, the Kp at 1 h in series [8] worked out at 22.1. For the compound `OC[C@H]1OC(O)[C@H](O)[C@@H](O)[C@@H]1F` (stereo not given in full), the Km in the series with Saccharomyces cerevisiae stood at 84000 µM. On the same count and under the same terms, as for `OC1C[C@H](O)[C@H](O)CO1` (stereo not given in full), the figure is 590 µM. Broadly, the pKi is the negative decadic logarithm of the Ki, by convention in mol/L. Turning to `NC1C(O)OC(CO)[C@@H](O)[C@@H]1O` (stereo not given in full), the values for the pKi in series [9] and in series [10] were 3.15 and 3.52, respectively. With `OC[C@H]1OC(O)[C@H](O)[C@@H](F)[C@@H]1O` (stereo not given in full), in the series on Saccharomyces cerevisiae, the Km worked out at 70000 µM. Turning to `OC[C@H]1OC(O)C(F)(F)[C@@H](O)[C@@H]1O` (stereo not given in full), the Km with Saccharomyces cerevisiae came to 130 µM. On the same count and under the same terms, as for `OC[C@H]1OC(O)[C@@H](F)[C@@H](O)[C@@H]1O` (stereo not given in full), the figure is 410 µM. Take `CC(=O)Nc1c(I)c(C(=O)N[C@H]2C(O)O[C@H](CO)[C@@H](O)[C@@H]2O)c(I)c(N(C)C(C)=O)c1I` (stereo not given in full) [METRIZAMIDE]: the pKi was 3.15 in series [9] and 1.70 in series [10]. Turning to `OC[C@H]1OC(O)[C@@H]([18F])[C@@H](O)[C@@H]1O` (stereo not given in full), in series [7], the Drug uptake was found to be 2.65%. For the same compound, the concentration ratio (Kp) at 1 h in series [8] was determined as 29.4.
